Drawing on patent publication US12479844B2, “Ion channel modulators” (Praxis Precision Medicines, Inc., priority 2018, dated 2025), this text covers inhibition for 33 compounds.

SMILES strings stand for the structures. Bounds are passed on as bounds.

This experiment deals with T1, human NaV1.6 (hNaV1.6) (Homo sapiens, UniProt Q9UQD0).
T1 construct: expressed in transfected cells; host or cells: HEK-293
T1 sequence (Q9UQD0 whole entry): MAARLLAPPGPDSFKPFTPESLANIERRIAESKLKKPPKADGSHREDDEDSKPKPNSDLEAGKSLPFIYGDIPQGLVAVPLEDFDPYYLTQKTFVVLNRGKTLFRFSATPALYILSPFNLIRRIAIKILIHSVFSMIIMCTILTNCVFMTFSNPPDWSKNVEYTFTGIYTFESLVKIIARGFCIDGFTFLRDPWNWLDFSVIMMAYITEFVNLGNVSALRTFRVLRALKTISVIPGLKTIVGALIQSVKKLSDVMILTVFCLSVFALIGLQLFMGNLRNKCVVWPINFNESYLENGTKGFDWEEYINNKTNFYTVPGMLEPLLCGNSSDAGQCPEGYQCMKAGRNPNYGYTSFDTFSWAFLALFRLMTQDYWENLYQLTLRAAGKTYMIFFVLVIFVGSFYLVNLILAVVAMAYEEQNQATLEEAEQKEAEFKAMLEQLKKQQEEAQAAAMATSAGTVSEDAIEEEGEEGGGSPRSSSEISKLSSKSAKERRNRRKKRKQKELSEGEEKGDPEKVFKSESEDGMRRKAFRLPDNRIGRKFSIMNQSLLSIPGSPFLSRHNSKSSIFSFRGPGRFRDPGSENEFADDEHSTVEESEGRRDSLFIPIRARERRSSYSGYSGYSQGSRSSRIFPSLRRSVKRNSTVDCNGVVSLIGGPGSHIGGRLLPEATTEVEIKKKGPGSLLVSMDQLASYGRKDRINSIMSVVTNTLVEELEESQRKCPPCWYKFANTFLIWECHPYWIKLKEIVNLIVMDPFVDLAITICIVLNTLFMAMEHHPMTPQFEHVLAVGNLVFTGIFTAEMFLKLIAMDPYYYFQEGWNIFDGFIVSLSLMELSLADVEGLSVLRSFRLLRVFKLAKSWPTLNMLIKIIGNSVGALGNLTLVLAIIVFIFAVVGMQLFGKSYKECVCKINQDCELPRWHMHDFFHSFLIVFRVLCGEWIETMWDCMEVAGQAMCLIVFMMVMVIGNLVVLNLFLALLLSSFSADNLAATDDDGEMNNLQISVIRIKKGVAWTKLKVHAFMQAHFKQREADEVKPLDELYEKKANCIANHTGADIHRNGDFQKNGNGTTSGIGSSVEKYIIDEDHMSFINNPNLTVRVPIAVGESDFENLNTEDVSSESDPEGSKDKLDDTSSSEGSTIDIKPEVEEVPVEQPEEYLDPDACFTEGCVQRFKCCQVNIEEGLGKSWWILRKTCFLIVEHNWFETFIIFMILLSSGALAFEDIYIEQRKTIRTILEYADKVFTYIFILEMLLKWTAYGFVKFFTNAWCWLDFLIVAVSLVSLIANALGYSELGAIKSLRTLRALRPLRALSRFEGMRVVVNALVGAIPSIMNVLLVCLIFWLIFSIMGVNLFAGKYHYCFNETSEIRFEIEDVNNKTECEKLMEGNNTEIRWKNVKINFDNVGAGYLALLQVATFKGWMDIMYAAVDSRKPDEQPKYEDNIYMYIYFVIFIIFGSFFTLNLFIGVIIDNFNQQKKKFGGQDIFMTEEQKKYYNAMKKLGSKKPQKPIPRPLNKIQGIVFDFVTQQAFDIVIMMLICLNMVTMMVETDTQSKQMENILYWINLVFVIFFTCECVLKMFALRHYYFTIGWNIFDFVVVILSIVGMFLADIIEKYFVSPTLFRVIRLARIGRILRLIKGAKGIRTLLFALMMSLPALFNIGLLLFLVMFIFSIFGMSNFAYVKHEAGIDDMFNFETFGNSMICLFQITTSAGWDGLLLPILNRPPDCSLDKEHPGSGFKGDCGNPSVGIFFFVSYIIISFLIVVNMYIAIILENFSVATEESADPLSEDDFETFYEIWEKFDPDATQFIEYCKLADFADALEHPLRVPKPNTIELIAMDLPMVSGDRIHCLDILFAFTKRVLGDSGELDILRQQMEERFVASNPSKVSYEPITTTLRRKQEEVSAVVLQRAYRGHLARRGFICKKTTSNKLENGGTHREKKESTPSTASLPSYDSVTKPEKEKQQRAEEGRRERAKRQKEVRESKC
Description: Modulation of late sodium current (INaL), PatchXpress high throughput electrophysiology. The following applies: HEK293, HEK-293 cells expressing recombinant human NaV1.6, late current evoked by 300 nM ATX-II, read-out: NaV 1.6 Assay Data (percent inhibition of INaL at hNaV1.6). The experiment is classed as cell-based. As to the method:
Functional characterization of exemplary compounds to modulate INaL expressed by the NaV1.6 voltage-gated sodium channel was accomplished using the PatchXpress™ high throughput electrophysiology platform (Molecular Devices, Sunnyvale, CA). HEK-293 cells expressing recombinant, human NaV1.6 (hNaV1.6) were grown in DMEM/high-glucose Dulbecco's modified, 10% FBS, 2 mM sodium pyruvate, 10 mM HEPES and 400 μg/mL G418. Cells were grown to 50%-80% confluency prior to harvesting. Trypsinized cells were washed, allowed to recover for 1 hour and then resuspended in extracellular recording solution at a concentration of 1×10^6 cells/ml. The onboard liquid handling facility of the PatchXpress was used for dispensing cells and applying test compounds. NaV late currents were evoked by the application of 300 nM ATX-II. INaL was evoked by depolarizing pulses to 0 mV for 200 ms from a non-inactivating holding potential (e.g., −120 mV) at a frequency of 0.1 Hz. INaL amplitude and stability were determined by analyzing the mean current amplitude over the final 20 ms of thetest pulse. Following steady state block with exemplary compounds (e.g., as described herein), a Na+ free solution containing an impermeant cation (e.g., Choline or NDMG) was added to confirm the identify of the sodium current. Percent steady-state inhibition of INaL was calculated as: [(INaL_compound)/(INaL_control)]*100, where INaL_compound and INaL_control represent INaL recorded in the presence or absence of compound, respectively.
What is called inhibition is the share of the control response that was lost under treatment. Take `Cc1cc(OC(F)(F)F)ccc1-c1cn2c(COCC3CC3)nnc2cn1` [Compound 16, 3-(cyclopropylmethoxymethyl)-6-[2-methyl-4-(trifluoromethoxy)phenyl]-[1,2,4]triazolo[4,3-a]pyrazine]: the inhibition at 1 µM is 30 to 70%.

With `Cc1cc(OC(F)(F)F)ccc1-c1cn2c(C(F)(F)OCC3CC3)nnc2cn1` [Compound 18, 3-[cyclopropylmethoxy(difluoro)methyl]-6-[2-methyl-4-(trifluoromethoxy)phenyl]-[1,2,4]triazolo[4,3-a]pyrazine], the inhibition at 1 µM was above 70%.

Turning to `COC(F)(F)c1nnc2cnc(-c3cc(C)c(OC(F)(F)F)cc3F)cn12` [Compound 42, 3-[difluoro(methoxy)methyl]-6-[2-fluoro-5-methyl-4-(trifluoromethoxy)phenyl]-[1,2,4]triazolo[4,3-a]pyrazine], the inhibition at 1 µM is above 70%.

Take `COCc1cc(OC(F)(F)F)ccc1-c1cn2c(COC)nnc2cn1` [Compound 17, 3-(methoxymethyl)-6-[2-(methoxymethyl)-4-(trifluoromethoxy)phenyl]-[1,2,4] triazolo[4,3-a]pyrazine]: the inhibition at 1 µM is below 30%.

With `CCOC(F)(F)c1nnc2cnc(-c3ccc(OC(C)C)cc3)cn12` [Compound 25, 3-(ethoxydifluoromethyl)-6-(4-isopropoxyphenyl)-[1,2,4]triazolo[4,3-a]pyrazine], the inhibition at 1 µM was above 70%.

`CCOC(F)(F)c1nnc2cnc(-c3ccc(OC4CC(F)(F)C4)cc3)cn12` [Compound 37, 6-[4-(3,3-difluorocyclobutoxy)phenyl]-3-[ethoxy(difluoro)methyl]-[1,2,4]triazolo[4,3-a]pyrazine]: the inhibition at 1 µM was above 70%.

Take `CCOC(F)(F)c1nnc2cnc(-c3ccc(OC(F)(F)F)cc3COC3CC3)cn12` [Compound 36, 6-[2-(cyclopropoxymethyl)-4-(trifluoromethoxy)phenyl]-3-[ethoxy(difluoro)methyl]-[1,2,4]triazolo[4,3-a]pyrazine]: the inhibition at 1 µM was 30 to 70%.

On to `COCc1cc(OC(F)(F)F)ccc1-c1cn2c(C(F)(F)OC)nnc2cn1` [Compound 1, 3-[difluoro(methoxy)methyl]-6-[2-(methoxymethyl)-4-(trifluoromethoxy)phenyl]-[1,2,4]triazolo[4,3-a]pyrazine], for which the inhibition at 1 µM is above 70%.

`COC(F)(F)c1nnc2cnc(-c3c(C)cc(OC(F)(F)F)cc3F)cn12` [Compound 43, 3-[difluoro(methoxy)methyl]-6-[2-fluoro-6-methyl-4-(trifluoromethoxy)phenyl]-[1,2,4]triazolo[4,3-a]pyrazine]: the inhibition at 1 µM is 30 to 70%.

As for `Cc1cc(OC(F)(F)F)ccc1-c1cn2c(C(F)(F)OC(C)C)nnc2cn1` [Compound 10, 3-(difluoro(isopropoxy)methyl)-6-(2-methyl-4-(trifluoromethoxy)phenyl)-[1,2,4]triazolo[4,3-a]pyrazine], the inhibition at 1 µM lay within 30 to 70%.

For the compound `COC(F)(F)c1nnc2cnc(-c3ccc(O[C@H](C)C(F)(F)F)cc3C)cn12` (single isomer, unassigned) [Compound 27], the inhibition at 1 µM lay within 30 to 70%.

As to `COC(F)(F)c1nnc2cnc(-c3ccc(OC(F)(F)F)cc3COC3CC3)cn12` [Compound 35, 6-[2-(cyclopropoxymethyl)-4-(trifluoromethoxy)phenyl]-3-[difluoro(methoxy)methyl]-[1,2,4]triazolo[4,3-a]pyrazine], the inhibition at 1 µM fell in the range of 30 to 70%.

With `CCOCc1nnc2cnc(-c3ccc(OC(F)(F)F)cc3C)cn12` [Compound 5, 3-(ethoxymethyl)-6-[2-methyl-4-(trifluoromethoxy)phenyl]-[1,2,4]triazolo[4,3-a]pyrazine], the inhibition at 1 µM is 30 to 70%.

As for `CCOC(F)(F)c1nnc2cnc(-c3ccc(OC(F)(F)F)cc3C)cn12` [Compound 4, 3-[ethoxy(difluoro)methyl]-6-[2-methyl-4-(trifluoromethoxy)phenyl]-[1,2,4]triazolo[4,3-a]pyrazine], the inhibition at 1 µM is above 70%.

As for `CO[C@@H](C)c1cc(OC(F)(F)F)ccc1-c1cn2c(C(F)(F)OC)nnc2cn1` (single isomer, unassigned) [Compound 32], the inhibition at 1 µM was below 30%.

For the compound `Cc1cc(OC(F)(F)F)ccc1-c1cn2c(COC3CC3)nnc2cn1` [Compound 20, 3-(cyclopropoxymethyl)-6-[2-methyl-4-(trifluoromethoxy)phenyl]-[1,2,4]triazolo[4,3-a]pyrazine], the inhibition at 1 µM was 30 to 70%.

Turning to `COC(F)(F)c1nnc2cnc(-c3ccc(OC4CC(F)(F)C4)cc3C)cn12` [Compound 39, 6-[4-(3,3-difluorocyclobutoxy)-2-methyl-phenyl]-3-[difluoro(methoxy)methyl]-[1,2,4]triazolo[4,3-a]pyrazine], the inhibition at 1 µM lay within 30 to 70%.

As to `CCOC(F)(F)c1nnc2cnc(-c3ccc(OC(C)C)cc3C)cn12` [Compound 23, 3-(ethoxydifluoromethyl)-6-(4-isopropoxy-2-methylphenyl)-[1,2,4]triazolo[4,3-a]pyrazine], the inhibition at 1 µM lay in the range of 30 to 70%.

`Cc1cc(OC(F)(F)F)ccc1-c1cn2c(COCc3ccccc3)nnc2cn1` [Compound 6, 3-((benzyloxy)methyl)-6-(2-methyl-4-(trifluoromethoxy)phenyl)-[1,2,4]triazolo[4,3-a]pyrazine]: the inhibition at 1 µM was above 70%.

Turning to `CCOC(F)(F)c1nnc2cnc(-c3ccc(OC(F)(F)F)cc3COC)cn12` [Compound 19, 3-[ethoxy (difluoro)methyl]-6-[2-(methoxymethyl)-4-(trifluoromethoxy)phenyl]-[1,2,4] triazolo [4,3-a] pyrazine], the inhibition at 1 µM is above 70%.

Regarding `COC(F)(F)c1nnc2cnc(-c3ccc(OC(C)C)cc3)cn12` [Compound 24, 3-(difluoro(methoxy)methyl)-6-(4-isopropoxyphenyl)-[1,2,4]triazolo[4,3-a]pyrazine], the inhibition at 1 µM was above 70%.

Regarding `CCOC(F)(F)c1nnc2cnc(-c3ccc(O[C@@H](C)C(F)(F)F)cc3C)cn12` (single isomer, unassigned) [Compound 30], the inhibition at 1 µM was 30 to 70%.

As for `CCOC(C)(C)c1nnc2cnc(-c3ccc(OC(F)(F)F)cc3C)cn12` [Compound 41, 3-(1-ethoxy-1-methyl-ethyl)-6-[2-methyl-4-(trifluoromethoxy)phenyl]-[1,2,4]triazolo[4,3-a]pyrazine], the inhibition at 1 µM was below 30%.

For the compound `CO[C@H](C)c1cc(OC(F)(F)F)ccc1-c1cn2c(C(F)(F)OC)nnc2cn1` (single isomer, unassigned) [Compound 31], the inhibition at 1 µM was below 30%.

For the compound `CCOC(F)(F)c1nnc2cnc(-c3ccc(OC(F)(F)F)cc3C3CC3)cn12` [Compound 34, 6-[2-cyclopropyl-4-(trifluoromethoxy)phenyl]-3-[ethoxy(difluoro)methyl]-[1,2,4]triazolo[4,3-a]pyrazine], the inhibition at 1 µM is above 70%.

Turning to `COC(F)(F)c1nnc2cnc(-c3ccc(O[C@@H](C)C(F)(F)F)cc3C)cn12` (single isomer, unassigned) [Compound 28], the inhibition at 1 µM is 30 to 70%.

For the compound `CCOC(F)(F)c1nnc2ccc(-c3ccc(OC(F)(F)F)cc3C)nn12` [Compound 15, 3-[ethoxy(difluoro)methyl]-6-[2-methyl-4-(trifluoromethoxy)phenyl]-[1,2,4]triazolo[4,3-b]pyridazine], the inhibition at 1 µM was below 30%.

In the case of `Cc1cc(OC(F)(F)F)ccc1-c1cn2c(C(F)(F)OC3CC3)nnc2cn1` [Compound 12, 3-[cyclopropoxy(difluoro)methyl]-6-[2-methyl-4-(trifluoromethoxy)phenyl]-[1,2,4]triazolo[4,3-a]pyrazine], the inhibition at 1 µM is 30 to 70%.

Take `CCOCc1nnc2ccc(-c3ccc(OC(F)(F)F)cc3C)nn12` [Compound 13, 3-(ethoxymethyl)-6-[2-methyl-4-(trifluoromethoxy)phenyl]-[1,2,4]triazolo[4,3-b]pyridazine]: the inhibition at 1 µM was below 30%.

Consider `COC(F)(F)c1nnc2cnc(-c3ccc(OC(F)(F)F)cc3C)cn12` [Compound 2, 3-[difluoro(methoxy)methyl]-6-[2-methyl-4-(trifluoromethoxy)phenyl]-[1,2,4]triazolo[4,3-a]pyrazine], for which the inhibition at 1 µM is above 70%.

In the case of `CCOC(F)(F)c1nnc2cnc(-c3ccc(O[C@H](C)C(F)(F)F)cc3C)cn12` (single isomer, unassigned) [Compound 29], the inhibition at 1 µM is above 70%.

Turning to `COC(F)(F)c1nnc2cnc(-c3ccc(OC(F)(F)F)cc3C3CC3)cn12` [Compound 33, 6-[2-cyclopropyl-4-(trifluoromethoxy)phenyl]-3-[difluoro(methoxy)methyl]-[1,2,4]triazolo[4,3-a]pyrazine], the inhibition at 1 µM is above 70%.

For `COC(F)(F)c1nnc2cnc(-c3ccc(OC(F)(F)F)c(C)c3)cn12` [Compound 11, 3-(difluoro(methoxy)methyl)-6-(3-methyl-4-(trifluoromethoxy)phenyl)-[1,2,4]triazolo[4,3-a]pyrazine], the inhibition at 1 µM was below 30%.
